What all share (assay type): cell-based
For assay [1], the system named is H116 (colon adenocarcinoma). Briefly: MTT cell proliferation (cytotoxicity) assay, H116. Conditions: H116 cells, MTT, 2 days incubation, triplicate, read-out: IC50 or concentration required to achieve 50% growth inhibition compared to untreated cells, H116 (colon). As to the method: (§1) MTM and CRM derivatives were assayed against a collection of tumor cell lines. Tumor cell lines were obtained from The American Type and Culture Collection (ATCC), and the lines were the following; A549 (human lung carcinoma); H116 (colon adenocarcinoma); PSN1 (pancreatic adenocarcinoma) and T98G (human glyoblastoma). Cells were cultured in medium RPM1 containing 2 mM glutamine, 50 IU/ml penicillin and 50 μg/ml streptomycin. Culture medium for cell lines A549 and H116 was supplemeted with 5% FBS and culture medium for cell lines PSN1 and T98G was supplemented with 10% FBS.
(§2) The evaluation of compound cytotoxicity was carried out by determining cell viability using an assay based on metabolic reduction of 3-(4,5-dimethyl-2-thiazolyl)-2,5-diphenyltetrazolium bromide (MTT; Sigma Chemical Co. St. Louis, Mo.). This reduction reaction is carried out by mitochondrion succinate dehydrogenase of viable cells and produce formazan, a chromogenic compound that can be quantified by spectrophotometry.
(§3) The assay was carried out following the procedure described by Mosmann (J. Immunol. Methods 1983, 65, 55). Tumor cells were incubated in 96 well microtitre plates containing 200 μl of complete medium (with 4×10^3 cells/well for A549 and 6×10^3 cells/well for H116, PSN1 and T98G). Serial dilutions in DMSO of the test compounds (10 μg/ml, 5 μg/ml, 1 μg/ml, 0.5 μg/ml, 0.1 μg/ml, 0.05 μg/ml, 0.01 μg/ml, y 0.005 μg/ml) were added and after 2 days incubation (at 37° C., 5% CO2 and high relative humidity), 50 μl of MTT (1 mg/ml in PBS) was added to each well. The plates were incubated at 37° C. for 2 hours and the reduction product (formazan) was resuspended in 100 μl of DMSO and quantified at 490 nm with a spectrophotometer.

Assay [2] relates to PSN1 (pancreatic adenocarcinoma). Description: MTT cell proliferation (cytotoxicity) assay, PSN1. The conditions noted are these: read-out: IC50 or concentration required to achieve 50% growth inhibition compared to untreated cells, PSN1 (pancreatic adenocarcinoma), PSN1 cells, MTT, 2 days incubation, triplicate, read-out: IC50 or concentration required to achieve 50% growth inhibition compared to untreated cells, PSN1 (prostate). As to the method: as §1, §2, §3

Assay [3] deals with T98G (human glyoblastoma). Description: MTT cell proliferation (cytotoxicity) assay, T98G. Conditions: T98G cells, MTT, 2 days incubation, triplicate, read-out: IC50 or concentration required to achieve 50% growth inhibition compared to untreated cells, T98G (glyoblastoma). The procedure:
as §1, §2, §3

The subject of assay [4] is A549 (human lung carcinoma). Description: MTT cell proliferation (cytotoxicity) assay, A549. Conditions: A549 cells, MTT, 2 days incubation, triplicate, read-out: IC50 or concentration required to achieve 50% growth inhibition compared to untreated cells, A549 (lung). As to the method: as §1, §2, §3

Like-named read-outs stand apart in the source and are kept apart here.

As to `CO[C@H](C(=O)[C@@H](O)[C@@H](C)O)[C@@H]1Cc2cc3cc(O[C@H]4C[C@@H](O[C@H]5C[C@@H](O)[C@H](O)C(C)O5)[C@H](O)C(C)O4)c(C)c(O)c3c(O)c2C(=O)[C@H]1O[C@H]1C[C@@H](O[C@H]2C[C@@H](O[C@H]3C[C@](C)(O)[C@H](OC(C)=O)C(C)O3)[C@@H](O)C(C)O2)[C@H](O)C(C)O1` (stereo partly drawn) [(XII)], the IC50 was 0.01 µM in assay [1] (48 h); 0.05 µM in assay [2] (Homo sapiens, 48 h); 0.3 µM in assay [3] (Homo sapiens, 48 h); 0.05 µM in assay [4] (Homo sapiens, 48 h).
As to “3D-demycarosyl-MTM-SK [reference compound]”, the IC50 is 0.5 µM in assay [1], 1 µM in assay [2], greater than 1 µM in assay [3] and 1 µM in assay [4].
In the case of `C/C=C/C(=O)O[C@@H]1C[C@H](O[C@@H]2C[C@H](Oc3cc4cc5c(c(O)c4c(O)c3C)C(=O)[C@@H](O[C@H]3C[C@@H](O[C@H]4C[C@@H](O[C@H]6C[C@](C)(O)[C@H](O)C(C)O6)[C@@H](O)C(C)O4)[C@H](O)C(C)O3)[C@H]([C@H](OC)C(=O)[C@@H](O)[C@@H](C)O)C5)OC(C)[C@H]2O)OC(C)[C@H]1O` (stereo partly drawn) [(LI)], the IC50 was determined as 0.043 µM in assay [1] (48 h); 0.043 µM in assay [2] (Homo sapiens, 48 h); 0.087 µM in assay [3] (Homo sapiens, 48 h); 0.043 µM in assay [4] (Homo sapiens, 48 h).

For the origin of these results see patent US8772253B2, “Aureolic acid derivatives, the method for preparation thereof and the uses” (Entrechem, S.L., priority 2009, dated 2014).
